Experimental data: US20090118375A1, “Optically active phthalamides” (priority 2004, published 2009)
Blank lines part the entries; values can stand above or below the molecule they belong to.

Tests used:
[1] = system: Heliothis armigera; assay: Heliothis armigera test; format: in vivo; conditions: Helicoverpa armigera, 168 h, soybean shoots dipped, after 7 d, read-out: Kill rate in % after 7 d
Protocol: (§1) To produce a suitable preparation of active compound, 1 part by weight of active compound is mixed with the stated amounts of solvent and emulsifier, and the concentrate is diluted with emulsifier-containing water to the desired concentration.
Soybean shoots (Glycine max) are treated by being dipped into the preparation of active compound of the desired concentration and are populated with caterpillars of Heliothis armigera while the leaves are still moist.
(§2) After the desired period of time, the kill in % is determined. 100% means that all caterpillars have been killed; 0% means that none of the caterpillars have been killed.

[2] = system: Myzus persicae; assay: Myzus test (spray application); format: in vivo; conditions: topical, 120 h, spray on Chinese cabbage leaves, after 5 d, read-out: Kill rate in % after 5 d
Protocol: Myzus Test (Spray Application)
as §1
Chinese cabbage leaves (Brassica pekinensis), which are infested by the green peach aphid (Myzus persicae), are treated by being sprayed with the preparation of the active compound of the desired concentration.
(§3) After the specified period of time, the mortality in % is determined. 100% means that all the […] have been killed; 0% means that none of the […] have been killed.

[3] = system: Spodoptera frugiperda; assay: Spodoptera frugiperda test (spray application); format: in vivo; conditions: topical, 168 h, spray on maize leaf slices, after 7 d, read-out: Kill rate in % after 7 d
Protocol: Spodoptera frugiperda Test (Spray Application)
as §1
Maize leave slices (Zea mays) are treated by being sprayed with the preparation of the active compound of the desired concentration and are infested with caterpillars of the fall army worm (Spodoptera frugiperda) after the leaves have dried.
as §3

[4] = system: Spodoptera exigua; assay: Spodoptera exigua test; format: in vivo; conditions: 168 h, cabbage leaves dipped, after 7 d, read-out: Kill rate in % after 7 d
Protocol: as §1
Cabbage leaves (Brassica oleracea) are treated by being dipped into the preparation of active compound of the desired concentration and are populated with caterpillars of the army worm (Spodoptera exigua) while the leaves are still moist.
as §2

[5] = system: Phaedon cochleariae; assay: Phaedon test (spray application); format: in vivo; conditions: topical, 168 h, spray on Chinese cabbage leaves, after 7 d, read-out: Kill rate in % after 7 d
Protocol: Phaedon Test (Spray Application) [table] To produce a suitable preparation of active compound, 1 part by weight of active compound is mixed with the stated amounts of solvent and emulsifier, and the concentrate is diluted with emulsifier-containing water to the desired concentration. Chinese cabbage leaves (Brassica pekinensis) are treated by being sprayed with the preparation of the active compound of the desired concentration and are infested with mustard beetle larvae (Phaedon cochleariae) after the leaves have dried.

melting point: 118 °C
Compound: CCS(=O)(=O)C[C@H](C)NC(=O)c1c(Br)cccc1C(=O)Nc1ccc(C(F)(C(F)F)C(F)(F)F)cc1Cl (stereo partly drawn) [Compound 58]
pest or weed control at 20 ppm [1]: 100%

Compound: CCS(=O)(=O)C[C@H](C)NC(=O)c1c(I)cccc1C(=O)Nc1ccc(C(C(F)F)C(F)(F)F)cc1C (stereo partly drawn) [Compound 7]
pest or weed control at 100 g/ha [2]: 100%

Compound: CSC[C@H](C)NC(=O)c1c(Cl)cccc1C(=O)Nc1ccc(C(F)(C(F)F)C(F)(F)F)cc1C (stereo partly drawn) [Compound 39]
pest or weed control at 20 g/ha [3]: 100%

Compound: Cc1cc(C(C(F)F)C(F)(F)F)ccc1NC(=O)c1cccc(Cl)c1C(=O)N[C@@H](C)C[S+](C)[O-] (stereo partly drawn) [Compound 62]
pest or weed control at 100 g/ha [2]: 100%

Compound: CSC[C@H](C)NC(=O)c1c(I)cccc1C(=O)Nc1ccc(C(F)(C(F)F)C(F)(F)F)cc1F (stereo partly drawn) [Compound 16]
pest or weed control at 20 g/ha [3]: 100%

melting point: 128 °C
Compound: Cc1cc(C(F)(C(F)(F)F)C(F)(F)Br)ccc1NC(=O)c1cccc(I)c1C(=O)N[C@@H](C)CS(C)(=O)=O (stereo partly drawn) [Compound 19, N^1-[4-(2-Bromo-1,2,2-trifluoro-1-trifluoromethyl-ethyl)-2-methyl-phenyl]-3-iodo-N^2-[2-methanesulfonyl-(S)-1-methyl-ethyl]-phthalamide]
pest or weed control at 20 ppm [4]: 100%

Compound: CCS(=O)(=O)C[C@H](C)NC(=O)c1c(I)cccc1C(=O)Nc1ccc(C(C(F)F)C(F)(F)F)cc1Cl (stereo partly drawn) [Compound 26]
pest or weed control at 20 g/ha [3]: 100%
pest or weed control at 100 g/ha [2]: 100%

Compound: CSC[C@H](C)NC(=O)c1c(I)cccc1C(=O)Nc1ccc(C(C(F)F)C(F)(F)F)cc1Cl (stereo partly drawn) [Compound 14]
pest or weed control at 20 ppm [1]: 100%
pest or weed control at 100 g/ha [2]: 100%

Compound: CSC[C@H](C)NC(=O)c1c(I)cccc1C(=O)Nc1ccc(C(F)(C(F)F)C(F)(F)F)cc1Cl (stereo partly drawn) [Compound 12]
pest or weed control at 20 g/ha [3]: 100%

Compound: CCS(=O)(=O)C[C@H](C)NC(=O)c1c(Br)cccc1C(=O)Nc1ccc(C(F)(C(F)(F)F)C(F)(F)Br)cc1C (stereo partly drawn) [Compound 57]
pest or weed control at 20 g/ha [5]: 100%

Compound: CCSC[C@H](C)NC(=O)c1c(Cl)cccc1C(=O)Nc1ccc(C(F)(C(F)F)C(F)(F)F)cc1Cl (stereo partly drawn) [Compound 50]
pest or weed control at 20 g/ha [5]: 100%

Compound: CSC[C@H](C)NC(=O)c1c(I)cccc1C(=O)Nc1ccc(C(F)(C(F)F)C(F)(F)F)cc1Br (stereo partly drawn) [Compound 15]
pest or weed control at 20 g/ha [5]: 100%

Compound: CSC[C@H](C)NC(=O)c1c(Br)cccc1C(=O)Nc1ccc(C(F)(C(F)(F)F)C(F)(F)Br)cc1C (stereo partly drawn) [Compound 63]
pest or weed control at 100 g/ha [2]: 90%

Compound: Cc1cc(C(F)(C(F)F)C(F)(F)F)ccc1NC(=O)c1cccc(I)c1C(=O)N[C@@H](C)C[S+](C)[O-] (stereo partly drawn) [Compound 66]
pest or weed control at 20 g/ha [3]: 100%
pest or weed control at 100 g/ha [2]: 100%

melting point: 124 °C
Compound: CSC[C@H](C)NC(=O)c1c(I)cccc1C(=O)Nc1ccc(C(F)(C(F)(F)F)C(F)(F)Br)cc1C (stereo partly drawn) [Compound 9, N^1-[4-(2-Bromo-1,2,2-trifluoro-1-trifluoromethyl-ethyl)-2-methyl-phenyl]-3-iodo-N^2-[(S)-1-methyl-2-methylsulfanyl-ethyl]-phthalamide]
pest or weed control at 20 ppm [1]: 100%

Compound: Cc1cc(C(F)(C(F)(F)F)C(F)(F)Br)ccc1NC(=O)c1cccc(I)c1C(=O)N[C@@H](C)C[S+](C)[O-] (stereo partly drawn) [Compound 65, N^1-[4-(2-Bromo-1,2,2-trifluoro-1-trifluoromethyl-ethyl)-2-methyl-phenyl]-3-iodo-N^2-[2-methanesulfinyl-(S)-1-methyl-ethyl]-phthalamide]
pest or weed control at 200 g/ha ([3]; 200 g/ha): 100%

Compound: Cc1cc(C(F)(C(F)(F)F)C(F)(F)Br)ccc1NC(=O)c1cccc(Br)c1C(=O)N[C@@H](C)CS(C)(=O)=O (stereo partly drawn) [Compound 64]
pest or weed control at 20 g/ha [3]: 90%

melting point: 138 to 141 °C
Compound: CCSC[C@H](C)NC(=O)c1c(I)cccc1C(=O)Nc1ccc(C(F)(C(F)F)C(F)(F)F)cc1F (stereo partly drawn) [Compound 8]
pest or weed control at 20 ppm [4]: 100%

melting point: 134 °C
Compound: CCS(=O)(=O)C[C@H](C)NC(=O)c1c(I)cccc1C(=O)Nc1ccc(C(F)(C(F)F)C(F)(F)F)cc1Br (stereo partly drawn) [Compound 34]
pest or weed control at 20 ppm [4]: 100%

Compound: CCSC[C@H](C)NC(=O)c1c(Cl)cccc1C(=O)Nc1ccc(C(C(F)F)C(F)(F)F)cc1Cl (stereo partly drawn) [Compound 51]
pest or weed control at 100 g/ha [2]: 100%

Compound: CSC[C@H](C)NC(=O)c1c(I)cccc1C(=O)Nc1ccc(C(C(F)F)C(F)(F)F)cc1F (stereo partly drawn) [Compound 17]
pest or weed control at 100 g/ha [2]: 100%

melting point: 116 °C
Compound: CCS(=O)(=O)C[C@H](C)NC(=O)c1c(Cl)cccc1C(=O)Nc1ccc(C(C(F)F)C(F)(F)F)cc1Cl (stereo partly drawn) [Compound 56]
pest or weed control at 20 ppm [4]: 100%

melting point: 140 to 142 °C
Compound: CCSC[C@H](C)NC(=O)c1c(Br)cccc1C(=O)Nc1ccc(C(F)(C(F)F)C(F)(F)F)cc1Br (stereo partly drawn) [Compound 68]
pest or weed control at 20 ppm [1]: 100%

Compound: CSC[C@H](C)NC(=O)c1c(I)cccc1C(=O)Nc1ccc(C(F)(C(F)F)C(F)(F)F)cc1C#N (stereo partly drawn) [Compound 29]
pest or weed control at 20 g/ha [5]: 83%

Compound: CCSC[C@H](C)NC(=O)c1c(I)cccc1C(=O)Nc1ccc(C(F)(C(F)F)C(F)(F)F)cc1Br (stereo partly drawn) [Compound 6]
pest or weed control at 20 g/ha [3]: 100%

Compound: C[C@@H](CS(C)(=O)=O)NC(=O)c1c(I)cccc1C(=O)Nc1ccc(C(F)(C(F)F)C(F)(F)F)cc1Br (stereo partly drawn) [Compound 30]
pest or weed control at 20 g/ha [3]: 100%

melting point: 121 °C
Compound: CCS(=O)(=O)C[C@H](C)NC(=O)c1c(Br)cccc1C(=O)Nc1ccc(C(C(F)F)C(F)(F)F)cc1Cl (stereo partly drawn) [Compound 59]
pest or weed control at 20 ppm [4]: 100%

Compound: CCSC[C@H](C)NC(=O)c1c(Cl)cccc1C(=O)Nc1ccc(C(F)(C(F)(F)F)C(F)(F)Br)cc1C (stereo partly drawn) [Compound 45]
pest or weed control at 20 g/ha [5]: 100%

Compound: CCS(=O)(=O)C[C@H](C)NC(=O)c1c(Cl)cccc1C(=O)Nc1ccc(C(F)(C(F)(F)F)C(F)(F)Br)cc1C (stereo partly drawn) [Compound 49]
pest or weed control at 20 g/ha [3]: 100%

melting point: 198 °C
Compound: C[C@@H](CS(C)(=O)=O)NC(=O)c1c(Cl)cccc1C(=O)Nc1ccc(C(C(F)F)C(F)(F)F)cc1Cl (stereo partly drawn) [Compound 48]
pest or weed control at 20 ppm [1]: 100%

Compound: Cc1cc(C(C(F)F)C(F)(F)F)ccc1NC(=O)c1cccc(I)c1C(=O)N[C@@H](C)C[S+](C)[O-] (stereo partly drawn) [Compound 60]
pest or weed control at 20 g/ha [5]: 100%

Compound: CSC[C@H](C)NC(=O)c1c(Cl)cccc1C(=O)Nc1ccc(C(F)(C(F)F)C(F)(F)F)cc1Cl (stereo partly drawn) [Compound 41]
pest or weed control at 20 g/ha [5]: 100%

Compound: CSC[C@H](C)NC(=O)c1c(I)cccc1C(=O)Nc1ccc(C(C(F)F)C(F)(F)F)cc1Br (stereo partly drawn) [Compound 22]
pest or weed control at 20 g/ha [5]: 100%

melting point: 180 °C
Compound: C[C@@H](CS(C)(=O)=O)NC(=O)c1c(Cl)cccc1C(=O)Nc1ccc(C(F)(C(F)F)C(F)(F)F)cc1Cl (stereo partly drawn) [Compound 47]
pest or weed control at 20 ppm [4]: 100%

Compound: CSC[C@H](C)NC(=O)c1c(I)cccc1C(=O)Nc1ccc(C(F)(C(F)F)C(F)(F)F)cc1C (stereo partly drawn) [Compound 10]
pest or weed control at 20 g/ha [5]: 100%

melting point: 112 °C
Compound: CCS(=O)(=O)C[C@H](C)NC(=O)c1c(I)cccc1C(=O)Nc1ccc(C(F)(C(F)F)C(F)(F)F)cc1C (stereo partly drawn) [Compound 13]
pest or weed control at 20 ppm [4]: 100%

melting point: 123 °C
Compound: Cc1cc(C(C(F)F)C(F)(F)F)ccc1NC(=O)c1cccc(I)c1C(=O)N[C@@H](C)CS(C)(=O)=O (stereo partly drawn) [Compound 20]
pest or weed control at 20 ppm [1]: 100%

Compound: CC[S+]([O-])C[C@H](C)NC(=O)c1c(I)cccc1C(=O)Nc1ccc(C(C(F)F)C(F)(F)F)cc1C (stereo partly drawn) [Compound 61]
pest or weed control at 20 g/ha [5]: 100%

melting point: 184 °C
Compound: C[C@@H](CS(C)(=O)=O)NC(=O)c1c(I)cccc1C(=O)Nc1ccc(C(F)(C(F)F)C(F)(F)F)cc1Cl (stereo partly drawn) [Compound 27]
pest or weed control at 20 ppm [4]: 100%

Compound: CCS(=O)(=O)C[C@H](C)NC(=O)c1c(I)cccc1C(=O)Nc1ccc(C(F)(C(F)(F)F)C(F)(F)Br)cc1C (stereo partly drawn) [Compound 2]
pest or weed control at 20 g/ha [5]: 100%

melting point: 148 °C
Compound: CCSC[C@H](C)NC(=O)c1c(Br)cccc1C(=O)Nc1ccc(C(F)(C(F)F)C(F)(F)F)cc1Cl (stereo partly drawn) [Compound 53]
pest or weed control at 20 ppm [1]: 100%

Compound: Cc1cc(C(F)(C(F)(F)F)C(F)(F)Br)ccc1NC(=O)c1cccc(Cl)c1C(=O)N[C@@H](C)CS(C)(=O)=O (stereo partly drawn) [Compound 43]
pest or weed control at 100 g/ha [2]: 100%

melting point: 175 °C
Compound: CCS(=O)(=O)C[C@H](C)NC(=O)c1c(Cl)cccc1C(=O)Nc1ccc(C(F)(C(F)F)C(F)(F)F)cc1Cl (stereo partly drawn) [Compound 55]
pest or weed control at 20 ppm [1]: 100%

melting point: 105 °C
Compound: CSC[C@H](C)NC(=O)c1c(Cl)cccc1C(=O)Nc1ccc(C(C(F)F)C(F)(F)F)cc1C (stereo partly drawn) [Compound 40]
pest or weed control at 20 ppm [1]: 100%
